Experiment: xn = mol fraction of the nth substance listed

CC(O)CO (stereo not drawn) + CS(C)=O
viscosity [mPa·s], 100 kPa
Details | 293.15 K | 298.15 K | 303.15 K | 308.15 K | 313.15 K | 318.15 K
x1 = 0.0513 | 2.52 | 2.24 | 2.04 | 1.8 | 1.65 | 1.55
x1 = 0.1024 | 2.82 | 2.51 | 2.28 | 1.99 | 1.82 | 1.7
x1 = 0.1534 | 3.19 | 2.82 | 2.55 | 2.21 | 2.01 | 1.87
x1 = 0.2043 | 3.61 | 3.17 | 2.86 | 2.44 | 2.22 | 2.06
x1 = 0.255 | 4.08 | 3.54 | 3.19 | 2.72 | 2.46 | 2.27
x1 = 0.3056 | 4.63 | 4 | 3.58 | 3.02 | 2.72 | –
x1 = 0.356 | 5.31 | 4.56 | 4.03 | 3.38 | 3.04 | –
x1 = 0.4064 | 6.1 | 5.21 | 4.56 | 3.82 | 3.39 | –
x1 = 0.4566 | 7.04 | 5.93 | 5.17 | 4.28 | 3.8 | –
x1 = 0.5066 | 8.19 | 6.88 | 5.94 | 4.84 | 4.25 | –
x1 = 0.5565 | 9.53 | 7.93 | 6.78 | 5.52 | 4.8 | –
x1 = 0.6063 | 11.3 | 9.3 | 7.84 | 6.36 | 5.45 | –
x1 = 0.6556 | 13.5 | 11 | 9.26 | 7.35 | 6.26 | –
x1 = 0.7055 | 16.3 | 13.1 | 10.9 | 8.58 | 7.23 | –
x1 = 0.7549 | 19.9 | 15.8 | 12.8 | 10.1 | 8.38 | –
x1 = 0.8042 | 24.4 | 19 | 15.4 | 12 | 9.8 | –
x1 = 0.8533 | 30.1 | 23.2 | 18.5 | 14.3 | 11.5 | –
x1 = 0.9024 | 37.7 | 28.7 | 22.7 | 17.2 | 13.7 | –
x1 = 0.9512 | 47.5 | 35.5 | 27.6 | 20.7 | 16.2 | –

CC(O)CO (stereo not drawn) + O
Details | viscosity [mPa·s]
293.15 K, 101 kPa, x1 = 0.0256 | 1.469
293.15 K, 101 kPa, x1 = 0.0558 | 2.125
293.15 K, 101 kPa, x1 = 0.092 | 3.14
293.15 K, 101 kPa, x1 = 0.1362 | 4.717
293.15 K, 101 kPa, x1 = 0.1913 | 6.665
293.15 K, 101 kPa, x1 = 0.2619 | 9.425
293.15 K, 101 kPa, x1 = 0.3556 | 14.17
293.15 K, 101 kPa, x1 = 0.4862 | 21.99
293.15 K, 101 kPa, x1 = 0.6804 | 35.18
298.15 K, 100 kPa, x1 = 0.2 | 5.452
298.15 K, 100 kPa, x1 = 0.4 | 12.77
298.15 K, 100 kPa, x1 = 0.6 | 21.63
298.15 K, 100 kPa, x1 = 0.8 | 32.85
298.15 K, 101 kPa, x1 = 0.197 | 5.634
298.15 K, 101 kPa, x1 = 0.3086 | 9.397
298.15 K, 101 kPa, x1 = 0.3774 | 12.17
298.15 K, 101 kPa, x1 = 0.4524 | 15.52
298.15 K, 101 kPa, x1 = 0.5109 | 18.22
298.15 K, 101 kPa, x1 = 0.5926 | 22.24
298.15 K, 101 kPa, x1 = 0.6898 | 27.16
298.15 K, 101 kPa, x1 = 0.8043 | 33.02
298.15 K, 101 kPa, x1 = 0.8747 | 36.98
298.15 K, 101 kPa, x1 = 0.9466 | 41.1
298.15 K, 101.3 kPa, x1 = 0.03 | 1.311
298.15 K, 101.3 kPa, x1 = 0.06 | 1.851
298.15 K, 101.3 kPa, x1 = 0.1 | 2.733
298.15 K, 101.3 kPa, x1 = 0.12 | 3.233
298.15 K, 101.3 kPa, x2 = 0.044 | 41.25
303.15 K, 101 kPa, x1 = 0.0101 | 0.902
303.15 K, 101 kPa, x1 = 0.02 | 1.022
303.15 K, 101 kPa, x1 = 0.0256 | 1.133
303.15 K, 101 kPa, x1 = 0.03 | 1.143
303.15 K, 101 kPa, x1 = 0.0399 | 1.282
303.15 K, 101 kPa, x1 = 0.0501 | 1.424
303.15 K, 101 kPa, x1 = 0.0558 | 1.572
303.15 K, 101 kPa, x1 = 0.0598 | 1.568
303.15 K, 101 kPa, x1 = 0.07 | 1.726
303.15 K, 101 kPa, x1 = 0.08 | 1.896
303.15 K, 101 kPa, x1 = 0.0899 | 2.059
303.15 K, 101 kPa, x1 = 0.092 | 2.236
303.15 K, 101 kPa, x1 = 0.1 | 2.246
303.15 K, 101 kPa, x1 = 0.1362 | 3.17
303.15 K, 101 kPa, x1 = 0.1913 | 4.481
303.15 K, 101 kPa, x1 = 0.2619 | 6.027
303.15 K, 101 kPa, x1 = 0.3556 | 8.744
303.15 K, 101 kPa, x1 = 0.4862 | 13.55
303.15 K, 101 kPa, x1 = 0.6804 | 21
303.15 K, 101 kPa, x2 = 0.97 | 1.143
308.15 K, 101 kPa, x1 = 0.0101 | 0.81
308.15 K, 101 kPa, x1 = 0.02 | 0.91
308.15 K, 101 kPa, x1 = 0.0399 | 1.13
308.15 K, 101 kPa, x1 = 0.0501 | 1.249
308.15 K, 101 kPa, x1 = 0.0598 | 1.373
308.15 K, 101 kPa, x1 = 0.07 | 1.499
308.15 K, 101 kPa, x1 = 0.08 | 1.642
308.15 K, 101 kPa, x1 = 0.0899 | 1.775
308.15 K, 101 kPa, x1 = 0.1 | 1.927
313.15 K, 101 kPa, x1 = 0.0101 | 0.732
313.15 K, 101 kPa, x1 = 0.02 | 0.82
313.15 K, 101 kPa, x1 = 0.0256 | 0.9114
313.15 K, 101 kPa, x1 = 0.03 | 0.907
313.15 K, 101 kPa, x1 = 0.0399 | 1.005
313.15 K, 101 kPa, x1 = 0.0501 | 1.105
313.15 K, 101 kPa, x1 = 0.0558 | 1.267
313.15 K, 101 kPa, x1 = 0.0598 | 1.213
313.15 K, 101 kPa, x1 = 0.07 | 1.315
313.15 K, 101 kPa, x1 = 0.08 | 1.437
313.15 K, 101 kPa, x1 = 0.0899 | 1.543
313.15 K, 101 kPa, x1 = 0.092 | 1.703
313.15 K, 101 kPa, x1 = 0.1 | 1.671
313.15 K, 101 kPa, x1 = 0.1362 | 2.278
313.15 K, 101 kPa, x1 = 0.1913 | 2.952
313.15 K, 101 kPa, x1 = 0.2619 | 4.008
313.15 K, 101 kPa, x1 = 0.3556 | 5.698
313.15 K, 101 kPa, x1 = 0.4862 | 8.384
313.15 K, 101 kPa, x1 = 0.6804 | 12.88
313.15 K, 101 kPa, x2 = 0.97 | 0.9218
318.15 K, 101 kPa, x1 = 0.0101 | 0.667
318.15 K, 101 kPa, x1 = 0.02 | 0.743
318.15 K, 101 kPa, x1 = 0.03 | 0.819
318.15 K, 101 kPa, x1 = 0.0399 | 0.904
318.15 K, 101 kPa, x1 = 0.0501 | 0.99
318.15 K, 101 kPa, x1 = 0.0598 | 1.078
318.15 K, 101 kPa, x1 = 0.07 | 1.168
318.15 K, 101 kPa, x1 = 0.08 | 1.268
318.15 K, 101 kPa, x1 = 0.0899 | 1.361
318.15 K, 101 kPa, x1 = 0.1 | 1.466
323.15 K, 100 kPa, x1 = 0.2 | 2.308
323.15 K, 100 kPa, x1 = 0.4 | 4.7
323.15 K, 100 kPa, x1 = 0.6 | 7.261
323.15 K, 100 kPa, x1 = 0.8 | 9.984
323.15 K, 101 kPa, x1 = 0.0101 | 0.611
323.15 K, 101 kPa, x1 = 0.02 | 0.678
323.15 K, 101 kPa, x1 = 0.0256 | 0.7514
323.15 K, 101 kPa, x1 = 0.03 | 0.744
323.15 K, 101 kPa, x1 = 0.0558 | 0.9714
323.15 K, 101 kPa, x1 = 0.092 | 1.282
323.15 K, 101 kPa, x1 = 0.1362 | 1.644
323.15 K, 101 kPa, x1 = 0.1913 | 2.138
323.15 K, 101 kPa, x1 = 0.2619 | 2.813
323.15 K, 101 kPa, x1 = 0.3556 | 3.891
323.15 K, 101 kPa, x1 = 0.4862 | 5.583
323.15 K, 101 kPa, x1 = 0.6804 | 8.332

Reference: the CheMixHub viscosity set
